Measurements published in ChEMBL document CHEMBL3817846, “Isomeric iodinated analogs of nimesulide: Synthesis, physicochemical characterization, cyclooxygenase-2 inhibitory activity, and transport across Caco-2 cells” (Bioorg Med Chem, 2016).

What was measured:
[1] = Acid dissociation constant, pKa of compound at 20 ug/ml at pH 5.6 to 6.8 by micro-scale spectrophotometric method; format: physicochemical
[2] = Stability in Balb/cCrSlc mouse plasma assessed as parent compound remaining up to 120 mins by HPLC analysis; format: ADME, cell-free; settings: read-out: Stability
[3] = Apparent permeability from basolateral to apical side in human Caco2 cells at 10 uM after 1 to 2 hrs by LC-MS analysis; format: ADME, cell-based; settings: Caco-2
[4] = Apparent permeability from basolateral to apical side in human Caco2 cells at 1 uM after 1 to 2 hrs by LC-MS analysis; format: ADME, cell-based; settings: Caco-2
[5] = Apparent permeability from apical to basolateral side in human Caco2 cells at 1 uM after 1 to 2 hrs by LC-MS analysis; format: ADME, cell-based; settings: Caco-2
[6] = biological target: T1, Prostaglandin G/H synthase 1 (Ovis aries, UniProt P05979); experiment: Inhibition of heme catalyzed hydroperoxidase activity of ovine COX-1 using arachidonic acid as substrate preincubated for 5 mins followed by substrate addition measured after 5 mins by TMPD oxidation based colorimetric assay
T1 sequence (P05979 whole entry): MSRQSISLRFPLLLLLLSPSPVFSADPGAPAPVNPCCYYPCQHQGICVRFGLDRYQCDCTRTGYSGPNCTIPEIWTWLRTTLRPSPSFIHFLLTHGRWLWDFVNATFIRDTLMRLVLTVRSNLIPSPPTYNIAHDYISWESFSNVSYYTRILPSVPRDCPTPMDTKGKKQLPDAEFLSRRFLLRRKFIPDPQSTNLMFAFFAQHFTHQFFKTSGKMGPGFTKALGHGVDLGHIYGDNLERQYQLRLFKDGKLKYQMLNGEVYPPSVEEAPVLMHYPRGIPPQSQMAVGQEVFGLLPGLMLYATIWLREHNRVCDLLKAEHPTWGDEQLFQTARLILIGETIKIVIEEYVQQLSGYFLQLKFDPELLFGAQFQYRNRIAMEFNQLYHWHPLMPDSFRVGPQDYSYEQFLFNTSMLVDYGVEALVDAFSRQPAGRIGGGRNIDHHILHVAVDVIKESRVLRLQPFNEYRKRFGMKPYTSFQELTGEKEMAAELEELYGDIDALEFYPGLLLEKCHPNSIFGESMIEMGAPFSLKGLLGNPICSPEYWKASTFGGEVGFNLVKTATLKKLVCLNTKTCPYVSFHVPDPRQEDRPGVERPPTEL

[7] = Octanol-water partition coefficient, log P of compound at pH 7.4 by reverse phase HPLC analysis; format: physicochemical
[8] = biological target: T2, Prostaglandin G/H synthase 2 (Ovis aries, UniProt P79208); experiment: Inhibition of heme catalyzed hydroperoxidase activity of ovine COX-2 using arachidonic acid as substrate preincubated for 5 mins followed by substrate addition measured after 5 mins by TMPD oxidation based colorimetric assay
T2 sequence (P79208 whole entry): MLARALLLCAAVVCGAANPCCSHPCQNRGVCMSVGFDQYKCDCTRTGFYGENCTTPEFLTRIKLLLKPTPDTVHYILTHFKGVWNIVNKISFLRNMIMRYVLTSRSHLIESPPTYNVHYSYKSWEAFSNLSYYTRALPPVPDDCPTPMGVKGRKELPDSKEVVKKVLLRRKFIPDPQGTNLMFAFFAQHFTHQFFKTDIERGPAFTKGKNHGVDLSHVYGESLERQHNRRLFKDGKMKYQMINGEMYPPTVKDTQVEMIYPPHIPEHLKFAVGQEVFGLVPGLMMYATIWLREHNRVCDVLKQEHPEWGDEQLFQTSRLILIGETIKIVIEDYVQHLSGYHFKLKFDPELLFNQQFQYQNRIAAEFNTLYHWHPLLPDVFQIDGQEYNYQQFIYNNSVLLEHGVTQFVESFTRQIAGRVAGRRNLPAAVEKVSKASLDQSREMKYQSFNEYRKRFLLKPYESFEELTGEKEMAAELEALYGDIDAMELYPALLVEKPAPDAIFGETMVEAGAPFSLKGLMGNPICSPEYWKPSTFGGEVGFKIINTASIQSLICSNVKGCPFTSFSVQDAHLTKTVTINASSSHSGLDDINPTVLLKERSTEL

[9] = Efflux ratio of permeability from basolateral to apical side over apical to basolateral side in human Caco2 cells at 1 uM after 1 to 2 hrs by LC-MS analysis; format: ADME, cell-based; settings: Caco-2
[10] = Apparent permeability from apical to basolateral side in human Caco2 cells at 10 uM after 1 to 2 hrs by LC-MS analysis; format: ADME, cell-based; settings: Caco-2
[11] = Efflux ratio of permeability from basolateral to apical side over apical to basolateral side in human Caco2 cells at 10 uM after 1 to 2 hrs by LC-MS analysis; format: ADME, cell-based; settings: Caco-2

Row | SMILES | pKa [1] | remaining at 2 h [2] [%] | Papp B→A at 10 µM [3] [×10⁻⁶ cm/s] | Papp B→A at 1 µM [4] [×10⁻⁶ cm/s] | Papp A→B at 1 µM [5] [×10⁻⁶ cm/s] | IC50 [6] [µM] | logP [7] | IC50 [8] [µM] | efflux ratio at 1 µM [9] | Papp A→B at 10 µM [10] [×10⁻⁶ cm/s] | efflux ratio at 10 µM [11]
1 | COc1ccc(Oc2cc([N+](=O)[O-])ccc2NS(C)(=O)=O)cc1 | 7.01 | 98.5 |  |  |  |  |  |  |  |  | 
2 | COc1ccccc1Oc1cc([N+](=O)[O-])ccc1NS(C)(=O)=O | 7.07 | 97.6 |  |  |  |  |  |  |  |  | 
3 | CS(=O)(=O)Nc1ccc([N+](=O)[O-])cc1Oc1ccccc1 [NIMESULIDE] | 6.57 | 98 |  |  |  |  |  |  |  |  | 
4 | CS(=O)(=O)Nc1ccc([N+](=O)[O-])cc1Oc1ccccc1I | 6.57 | 95 | 26.4 | 21.9 | 30.1 | > 100 | 2.11 | > 100 | 0.72 | 33.8 | 0.78
5 | COc1cccc(Oc2cc([N+](=O)[O-])ccc2NS(C)(=O)=O)c1 | 6.87 | 99.3 |  |  |  |  |  |  |  |  | 
6 | CS(=O)(=O)Nc1ccc([N+](=O)[O-])cc1Oc1cccc(I)c1 | 6.74 | 98.4 | 18 | 26.4 | 31.4 | > 100 | 2.72 | > 100 | 0.84 | 27 | 0.67
7 | CS(=O)(=O)Nc1ccc([N+](=O)[O-])cc1Oc1ccc(I)cc1 | 6.89 | 97.5 | 13.4 | 18.3 | 40.5 | > 100 | 2.77 | 0.47 | 0.45 | 17.1 | 0.78
